# From US5001141A, “N-(2-(2-oxo-1-imidazolidinyl)ethyl)-3-phenyl-urea and analogs as agents for induction of antioxidant enzymes” (E. I. Du Pont de Nemours and Company, priority 1989, dated 1991)
# Assays:
# [1] = system: superoxide dismutase (SOD); assay: SOD activity in bovine aortic endothelial cells; format: cell-based; details: for SOD activity: n = 10, mean ± SEM, * P < 0.05 vs 0 mM
# Procedure: (§1) 1. In vitro Administration of compounds of Examples 1 or 2 (Compound 1 and Compound 2, respectively).
# (§2) Two different cell types, human gingival fibroblasts (Gin-1) and bovine aortic endothelial cells (CPA ATCl CCL207) were obtained from the American Type Culture Collection. They were incubated until confluent in Dulbecco's modified Eagles medium, supplemented with 2 mM glutamine and 10% heat-inactivated fetal calf serum at 37° C. in a humidified chamber with 5% CO2 in air. Compounds were dissolved in DMSO, diluted to 100 mM with distilled deionized H2 O, and further diluted with Dulbecco's medium (without fetal bovine serum), to desired concentrations. The usual time of incubation with the compounds of this invention was 24 hr at 37° C. in a humidified incubator with 5% CO2 in air. Lactic dehydrogenase (LDH) release was determined in several in vitro preparations as an index of cytotoxicity. using Sigma Diagnostic Kit #500. LDH release was expressed as a percentage of total LDH activity released from cells treated with 0.4% Triton X [Cabaud, P. G., Wroblewski, F. Am. J. Clin. Pathol. 30:234-236, (1958)].
# (§3) Prior to the enzymatic assays the Gin-1 cells and aortic endothelial cells were prepared as follows: cells were rinsed several times with phosphate buffered saline without Ca^+2 or Mg^+2, removed from the culture flasks with 0.25% trypsin, counted using a hemocytometer, and resuspended at 2-3×10^6 cells/ml in Dulbecco's medium without fetal calf serum. Cells were then disrupted by pulse sonication and centrifuged at 100,000 xg at 4° C. Total protein [Bradford, M. M., Anal. Biochem 72:248-254, (1976)] and enzyme activities were determined on the cell sonicates, using standard techniques, SOD activity was determined using the method of McCord and Fridovich [McCord, J., Fridovich I., J. Biol. Chem. 244:6049-6055, (1969)]. Catalase activity was measured using the method of Beers and Sizer [Beers, R. F., Sizer, I. W., J. Biol. Chem. 195:133-146, (1952)]. Glutathione peroxidase activity was determined by the method of Guenzler et al. [Guenzler, W. A., Kremers, H., Flohe, L., Z. Klin. Chem. Klin. Biochem. 12:444-448 (1974)].
# (§4) All enzyme activities were expressed as units of activity per mg protein. The data were compared by Student's t test [Snedecor, W. G., Statistical Methods, p. 45, (1964)]. The level of significance was taken as p<0.05.
# catalase (CAT) [2] = assay: Catalase activity in Gin-1 human gingival fibroblasts; format: cell-based; details: Gin-1 cells; for CAT % Increase: vs untreated
# Procedure: as §1, §2, §3, §4
# [3] = system: polymorphonuclear leukocyte infiltration into ozone-exposed rat lungs; details: Bassett et al. 1988; cited from earlier work
# catalase (CAT) [4] = assay: Catalase activity in bovine aortic endothelial cells; format: cell-based; details: for CAT activity: n = 6, mean ± SEM
# Procedure: as §1, §2, §3, §4
# [5] = LDH release from Gin-1 cells as index of cytotoxicity; format: cell-based, human; details: human, % of total LDH released by 0.4% Triton X, mean ± SEM
# Procedure: as §2
# Gin-1 cells = assay: as above; format: cell-based, human
# Procedure: as §2
# [6] = system: glutathione peroxidase (GSH-PX); assay: Glutathione peroxidase activity in bovine aortic endothelial cells; format: cell-based; details: for GSH-PX activity: n = 6, mean ± SEM
# Procedure: as §1, §2, §3, §4
# [7] = system: superoxide dismutase (SOD); assay: SOD activity in rat heart, liver and lung after in vivo treatment
# Procedure: Male Lewis rats (250 g) were injected with 0.9% saline (controls) or Compound 1 (100 mg/kg) intraperitoneally twice a day for two days. Heart, liver and lungs were removed en bloc, dissected free of extraneous tissue, and blotted dry to remove contaminating blood. A portion of each tissue (approximately 0.5 g) was homogenized, and centrifuged at 500 xg for 10 minutes at 4° C. A 2 ml aliquot of supernatant was removed and centrifuged at 25,000 xg for 30 minutes. The supernatants were then decanted, and analyzed for SOD and CAT activities and total protein as described above.
# as §4
# [8] = system: glutathione peroxidase (GSH-PX); assay: Glutathione peroxidase activity in Gin-1 human gingival fibroblasts; format: cell-based; details: Gin-1 cells
# Procedure: as §1, §2, §3, §4
# [9] = system: superoxide dismutase (SOD); assay: SOD activity in Gin-1 human gingival fibroblasts; format: cell-based; details: Gin-1 cells; for SOD % Increase: vs untreated
# Procedure: as §1, §2, §3, §4
# [10] = system: superoxide dismutase (SOD) and catalase (CAT); assay: Induction of antioxidant enzymes SOD and CAT in mammalian cells and in organs of rats; details: Gin-1 cells, 1.0 mM, 24 hours; either SOD or CAT, or both enzymes
# Procedure: as §1, §2
# as §3, with “Cells were then disrupted by pulse sonication and centrifuged at 100,000 xg at 4° C.” left out, “Chem. Klin. Biochem. 12:444-448 (1974)].” left out
# All enzyme activities were expressed as units of activity per mg protein. […]
# [11] = Compound 2, at one or more concentrations
smiles,measurement,setting,value
"O=C(NCCN1CCNC1=O)Nc1ccccc1 [Compound 1, 1-[2-(2-oxo-1-imidazolidinyl)ethyl]-3-phenylurea]",SOD activity,[1]; 0.05 mM (so in the source),9.5 ± 1.8 U/mg Protein
same,SOD activity,[1]; 0.25 mM,6.7 ± 0.8 U/mg Protein
same,SOD activity,[1]; 1.0 mM,12.2 ± 3.4 U/mg Protein
same,SOD activity (in words),[1]; concentration-dependent,significantly increased (P<0.05) in a concentration-dependent manner
same,CAT activity,"catalase (CAT) [2]; 0.125 mM, n=4, mean ± SEM, * P < 0.05 vs 0 mM",9.1 ± 1.1 U/mg Protein
same,CAT activity,"catalase (CAT) [2]; 0.25 mM, n=4, mean ± SEM, * P < 0.05 vs 0 mM",10.0 ± 1.8 U/mg Protein
same,CAT activity,"catalase (CAT) [2]; 1.0 mM, n=4, mean ± SEM, * P < 0.05 vs 0 mM",11.2 ± 2.0 U/mg Protein
same,CAT activity,"catalase (CAT) [2]; 2.0 mM, n=4, mean ± SEM, * P < 0.05 vs 0 mM",13.9 ± 1.6 U/mg Protein
same,CAT activity compared with controls (in words),catalase (CAT) [2]; 0.125-2.0 mM Compound 1,significantly increased (P<0.05)
same,Polymorphonuclear leukocyte infiltration into ozone-exposed rat lungs,[3],decreased polymorphonuclear leukocyte infiltration
same,CAT activity,catalase (CAT) [4]; 0.05 mM (so in the source),27.1 ± 3.3 U/mg Protein
same,CAT activity,catalase (CAT) [4]; 0.25 mM,25.7 ± 3.6 U/mg Protein
same,CAT activity,"catalase (CAT) [4]; 1.0 mM, * P < 0.05 vs 0 mM",31.9 ± 2.4 U/mg Protein
same,Catalase activity (in words),catalase (CAT) [4]; highest concentration (1 mM) only,significantly increased at the highest concentration (1 mM) only
same,"cytotoxicity at 24 h, 125 µM",[5]; 0.125 mM,7 ± 2%
same,"cytotoxicity at 24 h, 1000 µM",[5]; 1.0 mM,8 ± 2%
same,Cytotoxicity as shown by LDH release (in words),Gin-1 cells,no indication of cytotoxicity
same,GSH-PX activity (in words),[6],not significantly different
same,GSH-PX activity,[6]; 0.05 mM (so in the source),33.5 ± 3.2 U/mg Protein
same,GSH-PX activity,[6]; 0.25 mM,28.1 ± 5.7 U/mg Protein
same,GSH-PX activity,[6]; 1.0 mM,59.8 ± 17 U/mg Protein
same,"Tissue SOD Activity, Heart","[7]; rat heart, 100 mg/kg i.p. 2 × /day for 2 days, (8), mean ± SEM, * P < 0.05 vs saline control",194 ± 14 U/mg Protein
same,SOD activity in all three tissues (in words),"[7]; rat heart, liver, lung, compared with controls",induced SOD activity in all three tissues studied
same,"Tissue SOD Activity, Liver","[7]; rat liver, 100 mg/kg i.p. 2 × /day for 2 days, (8), mean ± SEM, * P < 0.05 vs saline control",444 ± 68 U/mg Protein
same,"Tissue SOD Activity, Lung","[7]; rat lung, 100 mg/kg i.p. 2 × /day for 2 days, (8), mean ± SEM, * P < 0.05 vs saline control",134 ± 7 U/mg Protein
same,GSH-PX activity (in words),[8],remained constant
same,GSH-PX activity,"[8]; 0.125 mM, n=6, mean ± SEM",52.1 ± 4.7 U/mg Protein
same,GSH-PX activity,"[8]; 0.25 mM, n=6, mean ± SEM",45.8 ± 3.5 U/mg Protein
same,GSH-PX activity,"[8]; 1.0 mM, n=6, mean ± SEM",45.1 ± 5.3 U/mg Protein
same,GSH-PX activity,"[8]; 2.0 mM, n=6, mean ± SEM",47.8 ± 3.8 U/mg Protein
same,SOD activity,"[9]; 0.125 mM, n=7, mean ± SEM, * P < 0.05 vs 0 mM",13.1 ± 1.5 U/mg Protein
same,SOD activity,"[9]; 0.25 mM, n=7, mean ± SEM, * P < 0.05 vs 0 mM",20.7 ± 3.3 U/mg Protein
same,SOD activity,"[9]; 1.0 mM, n=7, mean ± SEM, * P < 0.05 vs 0 mM",11.6 ± 1.4 U/mg Protein
same,SOD activity,"[9]; 2.0 mM, n=7, mean ± SEM, * P < 0.05 vs 0 mM",13.5 ± 1.7 U/mg Protein
same,SOD activity compared with controls (in words),[9]; 0.125-2.0 mM Compound 1,significantly increased (P<0.05)
"O=C(NCCN1CCNC1=O)Nc1ccc(F)cc1 [Compound 2, 1-[2-(2-oxo-1-imidazolidinyl)ethyl]-3-(4-fluorophenyl)urea]",CAT activity,"catalase (CAT) [2]; 0.25 mM, n=6, mean ± SEM",8.3 ± 0.8 U/mg Protein
same,CAT activity,"catalase (CAT) [2]; 0.50 mM, n = 6, mean ± SEM, * P < 0.05 vs 0 mM",11.4 ± 1.8 U/mg Protein
same,CAT activity,"catalase (CAT) [2]; 1.0 mM, n=6, mean ± SEM",9.5 ± 1.4 U/mg Protein
same,CAT activity (in words),catalase (CAT) [2]; [11],significantly increased (P<0.05) at one or more concentrations
same,GSH-PX activity (in words),[8],remained constant
same,GSH-PX activity,"[8]; Compound 2 table, 0.25 mM, n = 6, mean ± SEM",35.0 ± 1.4 U/mg Protein
same,GSH-PX activity,"[8]; Compound 2 table, 0.50 mM, n = 6, mean ± SEM",40.0 ± 4.7 U/mg Protein
same,GSH-PX activity,"[8]; Compound 2 table, 1.0 mM, n = 6, mean ± SEM",39.1 ± 4 U/mg Protein
same,SOD activity,"[9]; 0.25 mM, n = 8, mean ± SEM, * P < 0.05 vs 0 mM",15.2 ± 1.6 U/mg Protein
same,SOD activity,"[9]; 0.50 mM, n = 8, mean ± SEM, * P < 0.05 vs 0 mM",15.9 ± 1.7 U/mg Protein
same,SOD activity,"[9]; 1.0 mM, n = 8, mean ± SEM, * P < 0.05 vs 0 mM",14.5 ± 2.2 U/mg Protein
same,SOD activity (in words),[9]; [11],significantly increased (P<0.05) at one or more concentrations
O=C(NCCN1CCNC1=O)Nc1ccc(Cl)cc1 [Example 7],SOD and/or CAT activity (in words),[10],increased
same,CAT activity,"catalase (CAT) [2]; 1.0 mM, 24 hours, Table 5",3.6 ± 0.9 U/mg Protein
same,CAT % Increase,"catalase (CAT) [2]; 1.0 mM, 24 hours",95%
same,SOD activity,"[9]; 1.0 mM, 24 hours, Table 5",5.8 ± 1.2 U/mg Protein
same,SOD % Increase,"[9]; 1.0 mM, 24 hours",51%
O=C(NCCN1CCNC1=S)Nc1ccccc1 [Example 11],SOD and/or CAT activity (in words),[10],increased
same,"Effect on CAT activity, ranking among Ex. 7, 11, 12 (in words)","catalase (CAT) [2]; 1.0 mM, 24 hours",affected CAT the most
same,CAT activity,"catalase (CAT) [2]; 1.0 mM, 24 hours, Table 5",4.1 ± 1.6 U/mg Protein
same,CAT % Increase,"catalase (CAT) [2]; 1.0 mM, 24 hours",118%
same,"Effect on SOD activity, ranking among Ex. 7, 11, 12 (in words)","[9]; 1.0 mM, 24 hours",least effect on SOD activity
same,SOD activity,"[9]; 1.0 mM, 24 hours, Table 5",4.0 ± 0.8 U/mg Protein
same,SOD % Increase,"[9]; 1.0 mM, 24 hours",3%
O=C(Nc1ccccc1)NN1CCCOC1=O [Example 12],SOD and/or CAT activity (in words),[10],increased
same,"Effect on CAT activity, ranking among Ex. 7, 11, 12 (in words)","catalase (CAT) [2]; 1.0 mM, 24 hours",least effect on CAT
same,CAT activity,"catalase (CAT) [2]; 1.0 mM, 24 hours, Table 5",2.5 ± 0.6 U/mg Protein
same,CAT % Increase,"catalase (CAT) [2]; 1.0 mM, 24 hours",35%
same,"Effect on SOD activity, ranking among Ex. 7, 11, 12 (in words)","[9]; 1.0 mM, 24 hours",greatest effect on SOD
same,SOD activity,"[9]; 1.0 mM, 24 hours, Table 5",6.5 ± 0.9 U/mg Protein
same,SOD % Increase,"[9]; 1.0 mM, 24 hours",69%
